Numbers after ± are expanded uncertainties.
Assay: excess molar enthalpy (molar enthalpy of mixing); xn = mol fraction of the nth substance listed
Settings: 298.15 K, 101 kPa, Liquid, Calvet calorimetry

## Cc1ccccc1 [toluene] + CCCCCCC
x2 = 0.00901
  excess molar enthalpy: 0.0055 ± 0.000478 kcal/mol
x2 = 0.02172
  excess molar enthalpy: 0.0136 ± 0.000478 kcal/mol
x2 = 0.04198
  excess molar enthalpy: 0.0253 ± 0.000717 kcal/mol
x2 = 0.06142
  excess molar enthalpy: 0.0359 ± 0.000717 kcal/mol
x2 = 0.08009
  excess molar enthalpy: 0.0457 ± 0.000717 kcal/mol
x2 = 0.09803
  excess molar enthalpy: 0.054 ± 0.000717 kcal/mol
x2 = 0.1153
  excess molar enthalpy: 0.0621 ± 0.000717 kcal/mol
x2 = 0.1319
  excess molar enthalpy: 0.0691 ± 0.000717 kcal/mol
x2 = 0.1479
  excess molar enthalpy: 0.0758 ± 0.000956 kcal/mol
x2 = 0.1633
  excess molar enthalpy: 0.0815 ± 0.000956 kcal/mol
x2 = 0.1782
  excess molar enthalpy: 0.087 ± 0.000956 kcal/mol
x2 = 0.1925
  excess molar enthalpy: 0.0918 ± 0.000956 kcal/mol
x2 = 0.2064
  excess molar enthalpy: 0.09608 ± 0.000956 kcal/mol
x2 = 0.2198
  excess molar enthalpy: 0.0999 ± 0.000956 kcal/mol
x2 = 0.2327
  excess molar enthalpy: 0.1035 ± 0.000956 kcal/mol
x2 = 0.2452
  excess molar enthalpy: 0.1071 ± 0.000956 kcal/mol
x2 = 0.2574
  excess molar enthalpy: 0.1102 ± 0.000956 kcal/mol
x2 = 0.2691
  excess molar enthalpy: 0.113 ± 0.0012 kcal/mol
x2 = 0.2805
  excess molar enthalpy: 0.115 ± 0.0012 kcal/mol
x2 = 0.2915
  excess molar enthalpy: 0.118 ± 0.0012 kcal/mol
x2 = 0.3022
  excess molar enthalpy: 0.1197 ± 0.0012 kcal/mol
x2 = 0.3125
  excess molar enthalpy: 0.1214 ± 0.0012 kcal/mol
x2 = 0.3226
  excess molar enthalpy: 0.1233 ± 0.0012 kcal/mol
x2 = 0.3324
  excess molar enthalpy: 0.1248 ± 0.0012 kcal/mol
x2 = 0.3419
  excess molar enthalpy: 0.126 ± 0.0012 kcal/mol
x2 = 0.3511
  excess molar enthalpy: 0.1272 ± 0.0012 kcal/mol
x2 = 0.3601
  excess molar enthalpy: 0.1281 ± 0.0012 kcal/mol
x2 = 0.3688
  excess molar enthalpy: 0.1291 ± 0.0012 kcal/mol
x2 = 0.3773
  excess molar enthalpy: 0.13 ± 0.0012 kcal/mol
x2 = 0.3856
  excess molar enthalpy: 0.1307 ± 0.0012 kcal/mol
x2 = 0.3883
  excess molar enthalpy: 0.131 ± 0.0012 kcal/mol
x2 = 0.3909
  excess molar enthalpy: 0.131 ± 0.0012 kcal/mol
x2 = 0.3935
  excess molar enthalpy: 0.1312 ± 0.0012 kcal/mol
x2 = 0.3961
  excess molar enthalpy: 0.1315 ± 0.0012 kcal/mol
x2 = 0.3987
  excess molar enthalpy: 0.1317 ± 0.0012 kcal/mol
x2 = 0.4012
  excess molar enthalpy: 0.1317 ± 0.0012 kcal/mol
x2 = 0.4038
  excess molar enthalpy: 0.1319 ± 0.0012 kcal/mol
x2 = 0.4063
  excess molar enthalpy: 0.1319 ± 0.0012 kcal/mol
x2 = 0.4088
  excess molar enthalpy: 0.1322 ± 0.0012 kcal/mol
x2 = 0.4112
  excess molar enthalpy: 0.1324 ± 0.0012 kcal/mol
x2 = 0.4137
  excess molar enthalpy: 0.1324 ± 0.0012 kcal/mol
x2 = 0.4161
  excess molar enthalpy: 0.1324 ± 0.0012 kcal/mol
x2 = 0.4185
  excess molar enthalpy: 0.1326 ± 0.0012 kcal/mol
x2 = 0.4209
  excess molar enthalpy: 0.1326 ± 0.0012 kcal/mol
x2 = 0.4232
  excess molar enthalpy: 0.1329 ± 0.0012 kcal/mol
x2 = 0.4256
  excess molar enthalpy: 0.1329 ± 0.0012 kcal/mol
x2 = 0.4279
  excess molar enthalpy: 0.1329 ± 0.0012 kcal/mol
x2 = 0.4302
  excess molar enthalpy: 0.1331 ± 0.0012 kcal/mol
x2 = 0.4325
  excess molar enthalpy: 0.1331 ± 0.0012 kcal/mol
x2 = 0.4348
  excess molar enthalpy: 0.1331 ± 0.0012 kcal/mol
x2 = 0.4382
  excess molar enthalpy: 0.1331 ± 0.0012 kcal/mol
x2 = 0.4415
  excess molar enthalpy: 0.1334 ± 0.0012 kcal/mol
x2 = 0.4449
  excess molar enthalpy: 0.1334 ± 0.0012 kcal/mol
x2 = 0.4481
  excess molar enthalpy: 0.1334 ± 0.0012 kcal/mol
x2 = 0.4514
  excess molar enthalpy: 0.1334 ± 0.0012 kcal/mol
x2 = 0.4546
  excess molar enthalpy: 0.1334 ± 0.0012 kcal/mol
x2 = 0.4578
  excess molar enthalpy: 0.1334 ± 0.0012 kcal/mol
x2 = 0.4609
  excess molar enthalpy: 0.1334 ± 0.0012 kcal/mol
x2 = 0.464
  excess molar enthalpy: 0.1334 ± 0.0012 kcal/mol
x2 = 0.4671
  excess molar enthalpy: 0.1334 ± 0.0012 kcal/mol
x2 = 0.4701
  excess molar enthalpy: 0.1331 ± 0.0012 kcal/mol
x2 = 0.4731
  excess molar enthalpy: 0.1331 ± 0.0012 kcal/mol
x2 = 0.476
  excess molar enthalpy: 0.1331 ± 0.0012 kcal/mol
x2 = 0.479
  excess molar enthalpy: 0.1331 ± 0.0012 kcal/mol
x2 = 0.4819
  excess molar enthalpy: 0.1329 ± 0.0012 kcal/mol
x2 = 0.4847
  excess molar enthalpy: 0.1329 ± 0.0012 kcal/mol
x2 = 0.4875
  excess molar enthalpy: 0.1329 ± 0.0012 kcal/mol
x2 = 0.4903
  excess molar enthalpy: 0.1326 ± 0.0012 kcal/mol
x2 = 0.4931
  excess molar enthalpy: 0.1326 ± 0.0012 kcal/mol
x2 = 0.4959
  excess molar enthalpy: 0.1324 ± 0.0012 kcal/mol
x2 = 0.4995
  excess molar enthalpy: 0.1322 ± 0.0012 kcal/mol
x2 = 0.503
  excess molar enthalpy: 0.1322 ± 0.0012 kcal/mol
x2 = 0.5066
  excess molar enthalpy: 0.1319 ± 0.0012 kcal/mol
x2 = 0.51
  excess molar enthalpy: 0.1319 ± 0.0012 kcal/mol
x2 = 0.5134
  excess molar enthalpy: 0.1317 ± 0.0012 kcal/mol
x2 = 0.5168
  excess molar enthalpy: 0.1315 ± 0.0012 kcal/mol
x2 = 0.5202
  excess molar enthalpy: 0.1312 ± 0.0012 kcal/mol
x2 = 0.5234
  excess molar enthalpy: 0.131 ± 0.0012 kcal/mol
x2 = 0.5267
  excess molar enthalpy: 0.1307 ± 0.0012 kcal/mol
x2 = 0.5299
  excess molar enthalpy: 0.1305 ± 0.0012 kcal/mol
x2 = 0.533
  excess molar enthalpy: 0.1303 ± 0.0012 kcal/mol
x2 = 0.5361
  excess molar enthalpy: 0.13 ± 0.0012 kcal/mol
x2 = 0.5392
  excess molar enthalpy: 0.1298 ± 0.0012 kcal/mol
x2 = 0.5422
  excess molar enthalpy: 0.1295 ± 0.0012 kcal/mol
x2 = 0.5452
  excess molar enthalpy: 0.1293 ± 0.0012 kcal/mol
x2 = 0.5482
  excess molar enthalpy: 0.1291 ± 0.0012 kcal/mol
x2 = 0.5511
  excess molar enthalpy: 0.1288 ± 0.0012 kcal/mol
x2 = 0.5539
  excess molar enthalpy: 0.1286 ± 0.0012 kcal/mol
x2 = 0.5568
  excess molar enthalpy: 0.1283 ± 0.0012 kcal/mol
x2 = 0.5589
  excess molar enthalpy: 0.1281 ± 0.0012 kcal/mol
x2 = 0.5609
  excess molar enthalpy: 0.1279 ± 0.0012 kcal/mol
x2 = 0.563
  excess molar enthalpy: 0.1276 ± 0.0012 kcal/mol
x2 = 0.565
  excess molar enthalpy: 0.1274 ± 0.0012 kcal/mol
x2 = 0.5671
  excess molar enthalpy: 0.1272 ± 0.0012 kcal/mol
x2 = 0.5691
  excess molar enthalpy: 0.1269 ± 0.0012 kcal/mol
x2 = 0.571
  excess molar enthalpy: 0.1267 ± 0.0012 kcal/mol
x2 = 0.573
  excess molar enthalpy: 0.1264 ± 0.0012 kcal/mol
x2 = 0.5749
  excess molar enthalpy: 0.1262 ± 0.0012 kcal/mol
x2 = 0.5769
  excess molar enthalpy: 0.126 ± 0.0012 kcal/mol
x2 = 0.5788
  excess molar enthalpy: 0.126 ± 0.0012 kcal/mol
x2 = 0.5807
  excess molar enthalpy: 0.1257 ± 0.0012 kcal/mol
x2 = 0.5826
  excess molar enthalpy: 0.1255 ± 0.0012 kcal/mol
x2 = 0.5844
  excess molar enthalpy: 0.1252 ± 0.0012 kcal/mol
x2 = 0.5863
  excess molar enthalpy: 0.125 ± 0.0012 kcal/mol
x2 = 0.5881
  excess molar enthalpy: 0.1248 ± 0.0012 kcal/mol
x2 = 0.5899
  excess molar enthalpy: 0.1245 ± 0.0012 kcal/mol
x2 = 0.5917
  excess molar enthalpy: 0.1243 ± 0.0012 kcal/mol
x2 = 0.5935
  excess molar enthalpy: 0.124 ± 0.0012 kcal/mol
x2 = 0.5952
  excess molar enthalpy: 0.1238 ± 0.0012 kcal/mol
x2 = 0.597
  excess molar enthalpy: 0.1236 ± 0.0012 kcal/mol
x2 = 0.5987
  excess molar enthalpy: 0.1233 ± 0.0012 kcal/mol
x2 = 0.6004
  excess molar enthalpy: 0.1231 ± 0.0012 kcal/mol
x2 = 0.6021
  excess molar enthalpy: 0.1228 ± 0.0012 kcal/mol
x2 = 0.6038
  excess molar enthalpy: 0.1226 ± 0.0012 kcal/mol
x2 = 0.6055
  excess molar enthalpy: 0.1224 ± 0.0012 kcal/mol
x2 = 0.6071
  excess molar enthalpy: 0.1221 ± 0.0012 kcal/mol
x2 = 0.6088
  excess molar enthalpy: 0.1219 ± 0.0012 kcal/mol
x2 = 0.6148
  excess molar enthalpy: 0.1212 ± 0.0012 kcal/mol
x2 = 0.6209
  excess molar enthalpy: 0.12 ± 0.0012 kcal/mol
x2 = 0.6271
  excess molar enthalpy: 0.119 ± 0.0012 kcal/mol
x2 = 0.6335
  excess molar enthalpy: 0.118 ± 0.0012 kcal/mol
x2 = 0.64
  excess molar enthalpy: 0.117 ± 0.0012 kcal/mol
x2 = 0.6466
  excess molar enthalpy: 0.116 ± 0.0012 kcal/mol
x2 = 0.6534
  excess molar enthalpy: 0.114 ± 0.0012 kcal/mol
x2 = 0.6603
  excess molar enthalpy: 0.113 ± 0.0012 kcal/mol
x2 = 0.6673
  excess molar enthalpy: 0.112 ± 0.0012 kcal/mol
x2 = 0.6745
  excess molar enthalpy: 0.1102 ± 0.000956 kcal/mol
x2 = 0.6819
  excess molar enthalpy: 0.1085 ± 0.000956 kcal/mol
x2 = 0.6894
  excess molar enthalpy: 0.1068 ± 0.000956 kcal/mol
x2 = 0.6971
  excess molar enthalpy: 0.1052 ± 0.000956 kcal/mol
x2 = 0.705
  excess molar enthalpy: 0.1035 ± 0.000956 kcal/mol
x2 = 0.713
  excess molar enthalpy: 0.1013 ± 0.000956 kcal/mol
x2 = 0.7212
  excess molar enthalpy: 0.09943 ± 0.000956 kcal/mol
x2 = 0.7297
  excess molar enthalpy: 0.09751 ± 0.000956 kcal/mol
x2 = 0.7383
  excess molar enthalpy: 0.0951 ± 0.000956 kcal/mol
x2 = 0.7471
  excess molar enthalpy: 0.0927 ± 0.000956 kcal/mol
x2 = 0.7562
  excess molar enthalpy: 0.0903 ± 0.000956 kcal/mol
x2 = 0.7623
  excess molar enthalpy: 0.0887 ± 0.000956 kcal/mol
x2 = 0.7685
  excess molar enthalpy: 0.087 ± 0.000956 kcal/mol
x2 = 0.7748
  excess molar enthalpy: 0.0851 ± 0.000956 kcal/mol
x2 = 0.7812
  excess molar enthalpy: 0.0832 ± 0.000956 kcal/mol
x2 = 0.7877
  excess molar enthalpy: 0.0813 ± 0.000956 kcal/mol
x2 = 0.7943
  excess molar enthalpy: 0.0789 ± 0.000956 kcal/mol
x2 = 0.801
  excess molar enthalpy: 0.077 ± 0.000956 kcal/mol
x2 = 0.8079
  excess molar enthalpy: 0.0746 ± 0.000956 kcal/mol
x2 = 0.8148
  excess molar enthalpy: 0.0724 ± 0.000956 kcal/mol
x2 = 0.8219
  excess molar enthalpy: 0.0703 ± 0.000717 kcal/mol
x2 = 0.8291
  excess molar enthalpy: 0.0679 ± 0.000717 kcal/mol
x2 = 0.8365
  excess molar enthalpy: 0.0655 ± 0.000717 kcal/mol
x2 = 0.8439
  excess molar enthalpy: 0.0629 ± 0.000717 kcal/mol
x2 = 0.8515
  excess molar enthalpy: 0.0602 ± 0.000717 kcal/mol
x2 = 0.8592
  excess molar enthalpy: 0.0574 ± 0.000717 kcal/mol
x2 = 0.8671
  excess molar enthalpy: 0.0545 ± 0.000717 kcal/mol
x2 = 0.8752
  excess molar enthalpy: 0.0516 ± 0.000717 kcal/mol
x2 = 0.8833
  excess molar enthalpy: 0.0485 ± 0.000717 kcal/mol
x2 = 0.8917
  excess molar enthalpy: 0.0452 ± 0.000717 kcal/mol
x2 = 0.9002
  excess molar enthalpy: 0.0418 ± 0.000717 kcal/mol
x2 = 0.9088
  excess molar enthalpy: 0.0385 ± 0.000717 kcal/mol
x2 = 0.9176
  excess molar enthalpy: 0.0351 ± 0.000717 kcal/mol
x2 = 0.9266
  excess molar enthalpy: 0.0315 ± 0.000717 kcal/mol
x2 = 0.9358
  excess molar enthalpy: 0.0277 ± 0.000717 kcal/mol
x2 = 0.9434
  excess molar enthalpy: 0.0246 ± 0.000717 kcal/mol
x2 = 0.9511
  excess molar enthalpy: 0.0215 ± 0.000478 kcal/mol
x2 = 0.9589
  excess molar enthalpy: 0.0184 ± 0.000478 kcal/mol
x2 = 0.9668
  excess molar enthalpy: 0.0151 ± 0.000478 kcal/mol
x2 = 0.9749
  excess molar enthalpy: 0.0115 ± 0.000478 kcal/mol
x2 = 0.9831
  excess molar enthalpy: 0.00789 ± 0.000478 kcal/mol
x2 = 0.9915
  excess molar enthalpy: 0.00382 ± 0.000478 kcal/mol

Source: the NIST ThermoML archive (doi:10.1021/je400184t)
